From PubChem BioAssay AID2060489 (Molecular Pharmacology Branch, DTP, NCI, 2025)
Values joined by “and” are separate entries in the source; they are usually repeats but may differ in a detail not shown here. Identical values can stand only once.

Tested on: 922993-354-T-J3-PDC complex spheroids, viability
Experiment: Anticancer human tumor 922993-354-T-J3-PDC patient-derived endometrial carcinoma cell line growth inhibition [GQUAD]
Conditions: for viability, T/C: stronger effect = lower value
Description: DNA G-quadruplex Stabilizer Agents in Combinations in Complex Spheroids
A high-throughput screen of multi-cell type tumor spheroids was designed to identify active combinations of DNA G-quadruplex stabilizer agents and targeted small molecules. Complex spheroids include a stromal component modeled by human endothelial cells (HUVEC) and fibroblasts modeled by human mesenchymal stem cells (MSCs). The concentration ranges selected for each drug and investigational agent were based upon clinically achievable concentrations if the clinical Cmax of the agent was known.
Compounds. The drugs and investigational agents: pidnarulex (CX-5461; NSC782164), APTO-253 (NSC789042), BRACO-19 (NSC847499), peposertib (NSC802822), ceralasertib (NSC780249), elimusertib (NSC800525), camonsertib (NSC841442), AZD-1390 (NSC803789), olaparib (NSC753686), talazoparib (NSC767125), ART-558 (NSC835418), sotorasib (NSC818433), MRTX-1133 (NSC836407), SN-38 (NSC673596), topotecan (NSC609699), etoposide (NSC141540), doxorubicin (NSC123127), gemcitabine (NSC613327), 5-fluorouracil (NSC19893), paclitaxel (NSC125973), vemurafenib (NSC761431), panobinostat (NSC761190), R-306465 (JNJ-16241199; NSC773264), adavosertib (NSC754352), TP-3654 (NSC805149), carboplatin (NSC241240), KSQ-4279 (NSC840948), and staurosporine (NSC755774) were obtained from the National Cancer Institute (NCI) Developmental Therapeutics Program Chemical Repository (34). The FDA-approved anticancer drug set is available from the NCI Developmental Therapeutics Program. […] The stock solutions were prepared in dimethyl sulfoxide (DMSO, Sigma-Aldrich, St. Louis, MO, cat. D2650) at 800-fold the tested concentration and stored at -70 degrees C prior to their use. All drugs and investigational agents were tested over a range starting from a high concentration at or near the clinical Cmax and decreasing in half-log increments. If the clinical Cmax for an agent had not been determined, the highest concentration tested was 10 microM.
2.3 Cell Culture. All cells were maintained in an incubator at 37 degrees C and 5% CO2 with 95% humidity. The PDC lines were cultured according to standard operating procedures established by the NCI PDMR. All PDCs were thawed and cultured in Matrigel-coated flasks prepared with a working solution of 1X Ham's F-12 nutrient mix, without supplementation (Invitrogen, cat. 11765054), 100 U/mL penicillin-streptomycin (Invitrogen, cat. 15140122), and 2.5% Matrigel (Corning Inc., cat. 354248) for the first three passages. The 857933-349-R-J2-PDC line was cultured in 6C/Colon 1B media, which includes advanced DMEM/F-12 (Thermo Fisher Scientific, cat. 12634028), 10 mM HEPES (Thermo Fisher Scientific, cat. 15630080), 1X GlutaMAX supplement (Thermo Fisher Scientific, cat. 35050061), 0.1 mg/mL primocin (InvivoGen, cat. ant-pm-2), 10% defined fetal bovine serum, heat inactivated (HyClone Laboratories Inc., cat. SH30070.03HI), 50% L-WRN conditioned media (ATCC, cat. CRL-3276), 1.25 mM N-Acetyl-L-cysteine (Sigma-Aldrich, cat. A9165), 10 mM nicotinamide (Sigma-Aldrich, cat. N0636), 1X B-27 supplement (Thermo Fisher Scientific, cat. 17504044), 1X N-2 supplement (Thermo Fisher Scientific, cat. 17502048), 10 microM Y-27632 dihydrochloride (Tocris Bioscience, cat. 1254), and 50 ng/mL human EGF recombinant protein (Thermo Fisher Scientific, cat. PHG0311). The 485176-168-R4-J1-PDC line was cultured in Panc media, which includes all 6C/Colon 1B media components plus 100 ng/mL human FGF-10 (Thermo Fisher Scientific, cat. 100-26), 500 nM SB-431542 (Selleckchem, cat. S1067), and gastrin (Tocris, cat. 3006).
[…]
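Note: spheroids exposed to compounds for seven days.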
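Throughout, for viability, T/C: 100% = DMSO vehicle control viability.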

IC50 (curve of compound)	IC50 (compound alone, run of 03/18/2024) [µM]	IC50 (compound alone, run of 03/26/2024) [µM]	Structure (SMILES)	viability, T/C (compound 0.0316 µM)	viability, T/C (compound 0.1 µM)	viability, T/C (compound 0.316 µM)	viability, T/C (compound 1 µM)	viability, T/C (compound 3.16 µM)	viability, T/C (compound 10 µM)
6.76 µM and 9.18 µM and > 10 µM	–	–	CC(=O)O[C@H]1C(=O)[C@@]2(C)[C@H]([C@H](OC(=O)c3ccccc3)[C@]3(O)C[C@H](OC(=O)[C@H](O)[C@@H](NC(=O)c4ccccc4)c4ccccc4)C(C)=C1C3(C)C)[C@]1(OC(C)=O)CO[C@@H]1C[C@@H]2O	109% and 89.5% and 121%	95% and 93% and 85.9%	84.9% and 103% and 93.4%	111% and 108% and 102%	75.6% and 78.7% and 84.9%	36.8% and 47.7% and 50%
> 10 µM	–	–	CC(C)(O)C1CCC(Nc2ccc3ncc(-c4cccc(C(F)(F)F)c4)n3n2)CC1 (configuration not stated)	106% and 88.2% and 93.2%	81% and 82.6% and 81.6%	89.6% and 84.6% and 88.7%	82.9% and 101% and 90.8%	78.8% and 68.7% and 81.9%	79.6% and 68% and 98.6%
> 10 µM	–	–	COc1ncnc(C2CC2)c1-c1ncc2cnn(Cc3ccc(-c4nc(C(F)(F)F)cn4C(C)C)cc3)c2n1	91.6% and 114% and 86.8%	87.8% and 92.6% and 89.9%	101% and 104% and 102%	87.8% and 99.7% and 99.6%	110% and 85.1% and 69.7%	95.9% and 87.4% and 81.4%
> 10 µM	–	–	COc1ccc([C@@H](O)c2cc(-c3ncnc4cc(N5CCOCC5)ccc34)c(F)cc2Cl)nn1	93.2% and 109% and 98.5%	99.4% and 61.7% and 94.8%	103% and 87% and 92.8%	93.4% and 83.4% and 86.5%	92% and 94.4% and 85%	69.3% and 69% and 52.9%
7.09 µM and > 10 µM	–	–	CCCS(=O)(=O)Nc1ccc(F)c(C(=O)c2c[nH]c3ncc(-c4ccc(Cl)cc4)cc23)c1F	101% and 91.3% and 97.1%	81% and 90.5% and 83.1%	99.1% and 89.8% and 101%	87.5% and 81% and 76%	78.5% and 68.7% and 87.7%	37.7% and 68.9% and 71%
0.381 µM and 0.447 µM and 0.422 µM	–	–	O=C(NO)c1cnc(N2CCN(S(=O)(=O)c3ccc4ccccc4c3)CC2)nc1	98.1% and 88.5% and 95.5%	71.3% and 68.2% and 82.4%	56% and 62% and 55.4%	36.7% and 32.2% and 32%	3.07% and 3.39% and 4.12%	0.53% (2×) and 0.58%
> 10 µM	–	–	C=CC(=O)N1CCN(c2nc(=O)n(-c3c(C)ccnc3C(C)C)c3nc(-c4c(O)cccc4F)c(F)cc23)C(C)C1 (configuration not stated)	101% and 110% and 99.2%	88.4% and 88.3% and 112%	102% and 124% and 99.9%	91.4% and 97.3% and 95.3%	93.3% and 95.4% and 128%	97.9% and 97.8% and 89.3%
> 10 µM	–	–	CC1COCCN1c1cc(C2(S(C)(=N)=O)CC2)nc(-c2ccnc3[nH]ccc23)n1 (configuration not stated)	99.8% and 96.6% and 97.3%	93.4% and 96.7% and 96.8%	91.8% and 84.6% and 95.6%	106% and 98.6% (2×)	93.7% and 129% and 92.5%	65.3% and 70.4% and 60.7%
4.52 µM and 4.95 µM and 6.19 µM	–	–	C=CCn1c(=O)c2cnc(Nc3ccc(N4CCN(C)CC4)cc3)nc2n1-c1cccc(C(C)(C)O)n1	79.8% and 93.2% and 78.9%	83.2% and 85.1% and 115%	107% and 109% and 113%	97.1% and 94.7% and 90.2%	66.1% and 73.2% and 82.1%	14.4% and 13.4% and 27.5%
> 10 µM and 7.75 µM	–	–	CC(C)n1c(=O)n(C)c2cnc3cc(F)c(-c4ccc(OCCCN5CCCCC5)nc4)cc3c21	96.3% and 98.6% and 87.9%	105% and 85.5% and 77.3%	70.1% and 91.7% and 63.2%	96% and 84.2% and 81.9%	77.9% and 79.6% and 84.8%	49.7% and 55.9% and 41.8%
> 10 µM	–	–	O=C(c1cc(Cc2n[nH]c(=O)c3ccccc23)ccc1F)N1CCN(C(=O)C2CC2)CC1	86.5% and 123% and 91.1%	93% and 92.2% and 94.4%	102% and 98.1% and 105%	86.7% and 85.6% and 86.3%	88.2% and 92.5% and 92.1%	99.3% and 77.2% and 85.4%
–	> 10	> 10	Cc1[nH]c2ccc(F)cc2c1-c1nc2c3cccnc3c3ncccc3c2[nH]1	–	–	–	–	–	106% [middle of 12 runs]
> 10 µM and 6.75 µM	–	–	COc1cc(C2c3cc4c(cc3C(OC3OC5COC(C)OC5C(O)C3O)C3COC(=O)C23)OCO4)cc(OC)c1O (configuration not stated)	88.4% and 94.8% and 88.6%	89% and 80.4% and 92%	76.1% and 86.3% and 92.8%	89.5% and 99.4% and 80.7%	74.5% and 95.4% and 76.1%	56.4% and 62.6% and 37%
